# Reference: patent US4406888A, “Aqueous micellar solutions of levonantradol and N-methyllevonantradol and lyophilic forms thereof for reconstitution” (Pfizer Inc., priority 1981, dated 1983)
# Structures can show the parent of a compound that is named as a salt.
# Key:
# [1] = Water solubility in micellar solutions of Polysorbate 80 USP; assay type: physicochemical; conditions: for Solubility: 25° C., pH 5.0, based on 88.8% activity
# Experimental: This temperature dependence of water solubilty of active ingredient is overcome by the use of sufficient concentration of amphiphile above the cmc such that the solubility of active ingredient is […] at said lowest temperature. The water solubility of active ingredients increases with increasing concentration above the cmc as is shown below for levonantradol in micellar solutions of Polysorbate 80 USP at pH 5.0 and 25° C.
# [2] = Stability of the active ingredient upon storage (general statement); assay type: physicochemical; conditions: particularly in solution
# [3] = accelerated stability studies, at least nine weeks, 37° C.
# Experimental: The procedure comprises dissolving the Polysorbate 80 USP in about 60% of the required water (previously degassed to remove dissolved air) at room temperature. […] The pharmaceutical necessities; i.e., mannitol, sodium citrate and sodium metabisulfite were then added together with about 20-25% of the remaining volume of water required. The pH was adjusted to 5.5 by addition of hydrochloric acid (10%) and the balance of water then added. The resulting formulation was made sterile by filtration and stored in amber vials sealed under a nitrogen atmosphere.
# The samples are analyzed for activity by a HPLC method using a Chromegabond C-8 column (silica silylated with octyltrichlorosilane, available from E. S. Industries, 8 South Maple Avenue, Marlton, N.J. 08053). The column is 4.6 mm I.D.×30 cm.; the mobile phase is 60% acetonitrile-40% phosphate buffer (0.05 M, pH 6.3) and the flow rate is 2 ml. per minute. Detection is by UV at 210 nm.
Structure (SMILES),water solubility ([1]; with decreasing temperature),stability upon storage [2],stability in micellar solutions [3],Solubility ([1]; 0.1% (w/v) Polysorbate 80 USP) [µg/mL],Solubility ([1]; 0.2% (w/v) Polysorbate 80 USP) [µg/mL],Solubility ([1]; 0.3% (w/v) Polysorbate 80 USP) [µg/mL],Solubility ([1]; 0.4% (w/v) Polysorbate 80 USP) [µg/mL],Solubility ([1]; 0.5% (w/v) Polysorbate 80 USP) [µg/mL],Solubility ([1]; 0.8% (w/v) Polysorbate 80 USP) [µg/mL],Solubility ([1]; 1.0% (w/v) Polysorbate 80 USP) [µg/mL],Solubility ([1]; 1.5% (w/v) Polysorbate 80 USP) [µg/mL],Solubility ([1]; 2.0% (w/v) Polysorbate 80 USP) [µg/mL],Solubility ([1]; 2.5% (w/v) Polysorbate 80 USP) [µg/mL],Solubility ([1]; 3.0% (w/v) Polysorbate 80 USP) [µg/mL],Solubility ([1]; 3.5% (w/v) Polysorbate 80 USP) [µg/mL],Solubility ([1]; 4.0% (w/v) Polysorbate 80 USP) [µg/mL],Solubility ([1]; 4.5% (w/v) Polysorbate 80 USP) [µg/mL],Solubility ([1]; 5.0% (w/v) Polysorbate 80 USP) [µg/mL],Solubility ([1]; 7.0% (w/v) Polysorbate 80 USP) [µg/mL],water solubility ([1]; presence of a relatively low concentration of Polysorbate 80)
"CC(=O)Oc1cc(O[C@H](C)CCCc2ccccc2)cc2c1[C@@H]1C[C@H](O)CC[C@H]1[C@H](C)N2 [Levonantradol, [6S-[3S*,6-alpha,6a-alpha,9-alpha,10a-beta]]-5,6,6a,7,8,9,10,10a-octahydro-6-methyl-3-(1-methyl-4-phenylbutoxy)-1,9-phenanthridinediol 1-acetate, hydrochloride]",reduced water solubility with decreasing temperature,subject to decomposition upon storage,completely stable,–,–,–,–,–,–,–,–,–,–,–,–,–,–,–,–,–
"CC(=O)Oc1cc(O[C@H](C)CCCc2ccccc2)cc2c1[C@@H]1C[C@H](O)CC[C@H]1[C@H](C)N2 [Levonantradol.HC1, [6S-[3S*,6-alpha,6a-alpha,9-alpha,10a-beta]]-5,6,6a,7,8,9,10,10a-octahydro-6-methyl-3-(1-methyl-4-phenylbutoxy)-1,9-phenanthridinediol 1-acetate, hydrochloride]",–,–,–,2.2,67,130,290,430,880,1230,2040,2850,3810,4440,5600,6300,6990,7550,11280,markedly increased
CC(=O)Oc1cc(O[C@H](C)CCCc2ccccc2)cc2c1[C@@H]1C[C@H](O)CC[C@H]1[C@H](C)N2C [N-methyllevonantradol],reduced water solubility with decreasing temperature,subject to decomposition upon storage,–,–,–,–,–,–,–,–,–,–,–,–,–,–,–,–,–,–
